Results published in article PMC8286829, “Identifying SARS-CoV-2 antiviral compounds by screening for small molecule inhibitors of nsp14/nsp10 exoribonuclease” (Biochemical Journal, 2021).
pIC50: −log10 of the molar value.

Biological target: T1, nsp10–14 fusion protein (Severe acute respiratory syndrome coronavirus 2, UniProt P0DTD1)
T1 construct: gene rep; with Non-structural protein 10
Assay: biochemical

O=C1C=C2C(=CCOC2O)O1 (stereo not shown) [patulin]
pIC50: 5.74
